# Measured values as given in US6670395B1, “Prophylactic and therapeutic treatment of skin sensitization and irritation” (Bristol-Myers Squibb Company, priority 1996, dated 2003).
# Legend:
# Balb/c female mice [1] = assay: Irritation induced by dinitrochlorobenzene: mouse ear thickness; format: in vivo
# Procedure: (§1) Thirty (30) Balb/c female mice were obtained from Sprague Dawley Labs. A 1.0% (w/v) solution of PAME was prepared in a gel formulation (2.5% HPMC in 75% ethanol). A second solution containing a 2:1 volume ratio of acetone to ethanol was also prepared. A 20% (w/v) solution of captopril and the second solution (sufficient to elicit a strong irritant response), was also prepared. In addition a 1.0% HPMC solution was prepared as a placebo.
# (§2) The Group I mice (10 mice) received the second solution and then 10 minutes later the HPMC solution. The positive control mice (10) designated as Group II received the captopril solution to the right ear followed by the HPMC solution. The experimental group of mice (10) (Group III) received the captopril solution to the right ear followed ten minutes later by the PAME solution.
# (§3) The thickness of the ears was measured after 2 hours when maximum redness and swelling from the captopril solution were observed.
# The procedures of Example 4 were repeated except that captopril was replaced with dinitrochlorobenzene (DNCB) in an amount of 2.0% (w/v) in a 1% HPMC gel.
# Balb/c mice [2] = assay: Counter sensitizer to oxazolone: ear swelling after challenge of sensitized mice; format: in vivo
# Procedure: (§4) A 1.0% (w/v) solution of phenoxyacetic acid methyl ester (PAME, a compound of Formula I wherein R is methyl) was prepared in a gel formulation (2.5% HPMC in 75% ethanol). The same gel formulation served as a negative control. For sensitization, a 1% (w/v) solution of dinitrochlorobenzene (DNCB) was prepared in acetone.
# (§5) Twenty-four (24) Balb/c mice had their back skin shaved. The mice were divided into three equal groups. The first group acted as a negative control and received on day 0 an application of acetone. The second and third groups each received 20 μL of 1% DNCB in acetone on the exposed back skin.
# All three groups were challenged on the right ear with 20μL of 1% DNCB in acetone five (5) days after sensitization. Then, 10 minutes after challenge, the first and second groups received 100 μL of 1% HPMC in 75% ethanol. The third group received 1% of PAME in the HPMC gel.
# (§6) Adverse reaction to the challenge with DNCB was determined by measuring the thickness of the mice ears before and after challenge to determine the amount of swelling, and then comparing the degree of swelling for mice treated in accordance with the invention (Group III) with Groups I and Groups II.
# The procedures of Example 1 were repeated except that the mice were sensitized with a 1% (w/v) solution of oxazolone.
# Balb/c female mice [3] = assay: Irritation induced by phorbol myristate: mouse ear thickness; settings: in vivo
# Procedure: as §1, §2, §3
# The procedures of Example 4 were repeated except that captopril was replaced with phorbol myristate (12-tetradecanyol-13-phorbol myristic acid) in an amount of 0.1% (w/v) in a 1% HPMC gel. Phenoxyacetic acid was also tested in this protocol.
# Balb/c mice [4] = assay: Counter sensitizer to DNCB: ear swelling after DNCB challenge of sensitized mice; format: in vivo
# Procedure: as §4, §5
# […] Then, 10 minutes after challenge, the first and second groups received 100 μL of 1% HPMC in 75% ethanol. The third group received 1% of PAME in the HPMC gel.
# as §6
# Balb/c female mice [5] = assay: Irritation induced by captopril: mouse ear thickness; format: in vivo
# Procedure: as §1, §2, §3
# Balb/c female mice [6] = assay: Irritation induced by retinoic acid: mouse ear thickness; format: in vivo
# Procedure: as §1, §2, §3
# The procedures of […] were repeated except that captopril was replaced by retinoic acid in an amount of 1% (w/v) in a 1% HPMC gel.
# [7] = PAME (2 mg) in HPMC gel + oxazolone (100 μg), 24 hours
Compound,"EAR THICKNESS (Balb/c female mice [1]; PAME + DNCB 2.0% (w/v), 2 hours)","% SUPPRESSION (Balb/c female mice [1]; PAME + DNCB, 2 hours, vs DNCB only)","inflammation induced by contact with DNCB (in words) (Balb/c female mice [1]; mouse, in vivo)",EAR SWELLING (Balb/c mice [2]; [7]),EAR THICKNESS (Balb/c mice [2]; [7]),"% SUPPRESSION (Balb/c mice [2]; PAME (2 mg) in HPMC gel + oxazolone (100 μg), 24 hours, vs oxazolone only)","adverse reactions induced by sensitization with oxazolone (in words) (Balb/c mice [2]; mouse, in vivo)",inflammation induced by contact with phorbol myristate (in words) (Balb/c female mice [3]),"EAR SWELLING (Balb/c mice [4]; PAME (1 mg) in HPMC gel + DNCB (100 μg), 24 hours)","EAR THICKNESS (Balb/c mice [4]; PAME (1 mg) in HPMC gel + DNCB (100 μg), 24 hours, right ear)","% SUPPRESSION (Balb/c mice [4]; PAME (1 mg) in HPMC gel + DNCB (100 μg), 24 hours, vs DNCB only)","adverse reaction of the skin induced by sensitization with DNCB (in words) (Balb/c mice [4]; administered alone, prophylactically)","EAR THICKNESS (Balb/c female mice [5]; 1.0% PAME gel 10 minutes after 20% captopril solution, 2 hours)","% SUPPRESSION (Balb/c female mice [5]; PAME + captopril, 2 hours, vs captopril only)","inflammation induced by contact with captopril (in words) (Balb/c female mice [5]; mouse, in vivo)","EAR THICKNESS (Balb/c female mice [6]; PAME + retinoic acid 1% (w/v), 2 hours)","% SUPPRESSION (Balb/c female mice [6]; PAME + retinoic acid, 2 hours, vs retinoic acid only)","inflammation induced by retinoic acid (in words) (Balb/c female mice [6]; mouse, in vivo)"
"COC(=O)COc1ccccc1 [PAME, phenoxyacetic acid methyl ester]",249 ± 8 MM × 10^−3,100%,suppressed inflammation,16 MM × 10^−3,278 ± 15 MM × 10^−3,84%,suppressed adverse reactions,suppressed inflammation,12 MM × 10^−3,240 ± 6 MM × 10^−3,62%,prevented an adverse reaction of the skin,226 ± 5 MM × 10^−3,≈93%,suppressed inflammation,237 ± 11 MM × 10^−3,100%,suppressed inflammation
"O=C(O)COc1ccccc1 [PHENOXYACETIC ACID, Phenoxyacetic acid]",–,–,–,–,–,–,–,suppressed inflammation,–,–,–,–,–,–,–,–,–,–
